Results published in ChEMBL document CHEMBL1144359, “Synthesis and antitumor activity of the hexacyclic camptothecin derivatives” (Bioorg Med Chem Lett, 2005).
pIC50: −log10 of the molar value.

Legend:
Bel-7402 = assay: In-vitro inhibitory concentration for human tumor BEL-7402 cell-line was determined using MTT assay after 3 days of incubation; format: functional, cell-based; settings: Bel-7402, 72 h
[1] = In-vitro inhibitory concentration for human tumor HELA cell-line was determined using MTT assay after 3 days of incubation; format: functional, cell-based; settings: 72 h
[2] = In-vitro inhibitory concentration for human tumor HCT116 cell-line was determined using MTT assay after 3 days of incubation; format: functional, cell-based; settings: HCT-116, 72 h
HL-60 = assay: In-vitro inhibitory concentration for human tumor HL60 cell-line was determined using […] assay after 3 days of incubation; format: functional, cell-based; settings: HL-60, 72 h
Mus musculus [3] = assay: Percent tumor-weight inhibition in mouse with tumor sarcoma-180 after intraperitoneal (i.p.) injection at a dose of 40 mg/Kg; format: functional
[4] = Lethal toxicity in mouse with tumor sarcoma-180 after intraperitoneal (i.p.) injection at a dose of 40 mg/Kg of total 8 tested; settings: in vivo, ip
Mus musculus [5] = assay: Percent body weight change in mouse with tumor sarcoma-180 after intraperitoneal (i.p.) injection at a dose of 40 mg/Kg; format: functional
Mus musculus [6] = assay: Average tumor weight in mouse with tumor sarcoma-180 after intraperitoneal (i.p.) injection at a dose of 40 mg/Kg; format: functional
[7] = Lethal toxicity in mouse with tumor sarcoma-180 after intraperitoneal (i.p.) injection at a dose of 2.5 mg/Kg of total 8 tested; settings: in vivo, ip
Mus musculus [8] = assay: Percent body weight change in mouse with tumor sarcoma-180 after intraperitoneal (i.p.) injection at a dose of 2.5 mg/Kg; format: functional
[9] = Lethal toxicity in mouse with tumor sarcoma-180 after intraperitoneal (i.p.) injection at a dose of 5.0 mg/Kg of total 8 tested; settings: in vivo, ip
Mus musculus [10] = assay: Percent tumor-weight inhibition in mouse with tumor sarcoma-180 after intraperitoneal (i.p.) injection at a dose of 2.5 mg/Kg; format: functional
Mus musculus [11] = assay: Percent tumor-weight inhibition in mouse with tumor sarcoma-180 after intraperitoneal (i.p.) injection at a dose of 5 mg/Kg; format: functional
Mus musculus [12] = assay: Average tumor weight in mouse with tumor sarcoma-180 after intraperitoneal (i.p.) injection at a dose of 5 mg/Kg; format: functional
Mus musculus [13] = assay: Average tumor weight in mouse with tumor sarcoma-180 after intraperitoneal (i.p.) injection at a dose of 2.5 mg/Kg; format: functional
Mus musculus [14] = assay: Percent body weight change in mouse with tumor sarcoma-180 after intraperitoneal (i.p.) injection at a dose of 5 mg/Kg; format: functional
Mus musculus [15] = assay: Percent tumor-weight inhibition in mouse with tumor sarcoma-180 after intraperitoneal (i.p.) injection at a dose of 75 mg/Kg; format: functional
[16] = Lethal toxicity in mouse with tumor sarcoma-180 after intraperitoneal (i.p.) injection at a dose of 75 mg/Kg of total 10 tested; settings: in vivo, ip
Mus musculus [17] = assay: Percent body weight change in mouse with tumor sarcoma-180 after intraperitoneal (i.p.) injection at a dose of 75 mg/Kg; format: functional
Mus musculus [18] = assay: Average tumor weight in mouse with tumor sarcoma-180 after intraperitoneal (i.p.) injection at a dose of 75 mg/Kg; format: functional
Mus musculus [19] = assay: Average tumor weight in mouse with tumor sarcoma-180 after intraperitoneal (i.p.) injection at a dose of 1 mg/Kg; format: functional
[20] = Lethal toxicity in mouse with tumor sarcoma-180 after intraperitoneal (i.p.) injection at a dose of 0.5 mg/Kg of total 8 tested; settings: in vivo, ip
Mus musculus [21] = assay: Average tumor weight in mouse with tumor sarcoma-180 after intraperitoneal (i.p.) injection at a dose of 0.5 mg/Kg; format: functional
Mus musculus [22] = assay: Percent tumor-weight inhibition in mouse with tumor sarcoma-180 after intraperitoneal (i.p.) injection at a dose of 0.5 mg/Kg; format: functional
Mus musculus [23] = assay: Percent tumor-weight inhibition in mouse with tumor sarcoma-180 after intraperitoneal (i.p.) injection at a dose of 1 mg/Kg; format: functional
Mus musculus [24] = assay: Percent body weight change in mouse with tumor sarcoma-180 after intraperitoneal (i.p.) injection at a dose of 1 mg/Kg; format: functional
[25] = Lethal toxicity in mouse with tumor sarcoma-180 after intraperitoneal (i.p.) injection at a dose of 1.0 mg/Kg of total 8 tested; settings: in vivo, ip
Mus musculus [26] = assay: Percent body weight change in mouse with tumor sarcoma-180 after intraperitoneal (i.p.) injection at a dose of 0.5 mg/Kg; format: functional

| SMILES | pIC50 (Bel-7402) | pIC50 [1] | pIC50 [2] | pIC50 (HL-60) | also measured |
| --- | --- | --- | --- | --- | --- |
| CC[C@@]1(O)C(=O)OCc2c1cc1n(c2=O)Cc2cc3c4c(ccc3nc2-1)OC(CO)C4 (some centres not stated) | 7.72 | 7.60 | 8.59 | 8.06 |  |
| CCc1c2c(nc3ccc4c(c13)CC(CO)O4)-c1cc3c(c(=O)n1C2)COC(=O)[C@]3(O)CC (some centres not stated) | 8.11 | 7.64 | 8.42 | 8.15 |  |
| CCc1c2c(nc3ccc4occc4c13)-c1cc3c(c(=O)n1C2)COC(=O)[C@]3(O)CC | 8.59 | 8.64 | 8.77 | 9.55 |  |
| CCc1c2c(nc3ccc4c(c13)CC(COC(C)=O)O4)-c1cc3c(c(=O)n1C2)COC(=O)[C@]3(O)CC (some centres not stated) | 7.96 | 7.85 | 9.28 | 8.04 |  |
| CCc1c2c(nc3ccc4c(c13)CC(C)O4)-c1cc3c(c(=O)n1C2)COC(=O)[C@]3(O)CC (some centres not stated) | 8.12 | 7.72 | 8.59 | 8.31 |  |
| CCc1c2c(nc3ccc(OC(=O)N4CCC(N5CCCCC5)CC4)cc13)-c1cc3c(c(=O)n1C2)COC(=O)[C@]3(O)CC [IRINOTECAN] |  |  |  |  | TWI (Mus musculus [3]): 99.4%; No. of mice dead [4]: 0; BWC (Mus musculus [5]): -28%; TW (Mus musculus [6]): 0.01 |
| CC[C@@]1(O)C(=O)OCc2c1cc1n(c2=O)Cc2cc3c4c(ccc3nc2-1)OC(O)C4 (some centres not stated) | 8.59 |  | 8.49 | 8.08 | No. of mice dead [7]: 0; BWC (Mus musculus [8]): 5%; No. of mice dead [9]: 0; TWI (Mus musculus [10]): 70%; TWI (Mus musculus [11]): 97%; TW (Mus musculus [12]): 0.05; TW (Mus musculus [13]): 0.45; BWC (Mus musculus [14]): -31% |
| CC[C@@]1(O)C(=O)OCc2c1cc1n(c2=O)Cc2cc3c4c(ccc3nc2-1)OC(COC(C)=O)C4 (some centres not stated) | 7.82 | 7.96 | 8.37 | 7.96 |  |
| CC[C@@]1(O)C(=O)OCc2c1cc1n(c2=O)Cc2cc3c4c(ccc3nc2-1)OC(C)C4 (some centres not stated) | 8.13 | 8.00 | 8.31 | 8.51 |  |
| O=c1[nH]cc(F)c(=O)[nH]1 [FLUOROURACIL] |  |  |  |  | TWI (Mus musculus [15]): 86%; No. of mice dead [16]: 0; BWC (Mus musculus [17]): 31%; TW (Mus musculus [18]): 0.22 |
| CCc1c2c(nc3ccc4c(c13)CC(O)O4)-c1cc3c(c(=O)n1C2)COC(=O)[C@]3(O)CC (some centres not stated) | 8.36 | 7.70 | 8.85 | 8.38 |  |
| CC[C@@]1(O)C(=O)OCc2c1cc1n(c2=O)Cc2cc3c(ccc4occc43)nc2-1 | 8.80 | 7.82 | 8.80 | 8.52 | TW (Mus musculus [19]): 0.03; No. of mice dead [20]: 0; TW (Mus musculus [21]): 0.23; TWI (Mus musculus [22]): 85%; TWI (Mus musculus [23]): 98%; BWC (Mus musculus [24]): -34%; No. of mice dead [25]: 0; BWC (Mus musculus [26]): 26% |
| CCc1c2c(nc3ccc(O)cc13)-c1cc3c(c(=O)n1C2)COC(=O)[C@]3(O)CC [7-ETHYL-10-HYDROXYCAMPTOTHECIN] | 7.89 | 7.66 | 8.48 | 7.72 |  |
